From patent publication US20240100133A1, “ENZYMATICALLY INACTIVE GRANZYME A AND USES THEREFORE” (Saint Louis University, priority 2022, published 2024)

Tested on: Connaught BCG within primary CD14+ human monocytes
Assay type: cell-based

PACMA-31 [reference compound]
effect of PDIA1 inhibitor on GzmA-mediated mycobacterial inhibition, BCG (PACMA-31 200 nM or Rutin 50 μM pretreatment combined with GzmA-WT): enhanced mycobacterial inhibitory activity
intracellular bacterial burden, PDIA1 inhibitor alone (PACMA-31 200 nM or Rutin 50 μM, 30 min pretreatment, no GzmA): did not influence the intracellular bacterial burden
